Source: patent publication US20260048046A1, “METHOD FOR IMPROVING GROWTH PERFORMANCE IN FEEDLOT CATTLE” (Elanco US Inc., priority 2022, published 2026)

Test system: beef feedlot cattle
Assay: 56-d study: abnormal health observations and removals
Assay type: in vivo
Protocol: This example describes a randomized complete block study that evaluated LUB dose (0, 1.5, 3.5, and 5.5 mg kg^−1 dry matter) during the last 56 d of the feeding period on live weight, carcass weight, and associated ratios in beef feedlot cattle. Carcass characteristics, mobility, and health were also evaluated. All cattle received monensin and tylosin throughout the study.
A randomized complete block design was used to evaluate the effects of LUB on calculated growth performance of 2,880 British and Continental European crossbred steers typical for U.S. feedlots. Bos indicus breeding was limited to less than ⅛. The study evaluated four
LUB doses: 0 (control, CON), 1.5, 3.5, and 5.5 mg·kg^−1 DM. There were 12 blocks, each block containing four replicate pens that started LUB feeding on the same date. Steers were randomized within each block of four pens with 60 steers per pen, resulting in a total of 720 steers enrolled in each treatment. LUB feeding started on Jun. 24, 2018, Jul. 1, 2018, and Jul. 15, 2018, four blocks on each date.
During the approximately 10 to 15 d acclimation phase and the entire treatment phase until cattle were loaded for slaughter, all animals were observed by trained caretakers at least once daily, but health issues were only noted by exception. All abnormalities were recorded even if considered common for feedlot cattle. Abnormal health observations were observations that the observer considered as 1) typical for beef cattle at that age, or 2) not causing undue pain or distress to the animal, and/or, 3) not impeding the animal's growth at the time the observation was made. Animals with abnormal health observations were allowed to remain in the study. Animals were allowed to receive concomitant therapies (e.g., antibiotic treatment for respiratory disease and treatment for bloat). Health observations requiring an animal to be classified as “removed” were abnormalities that the observer considered as 1) resulting in pain or distress to the animal, or 2) likely to result in further deterioration of the animal's health, and/or 3) impairing the animal's ability to access food or water at the time of the observation. Animals removed from the study during the treatment or withdrawal phase were penned separately in the research feedlot and tracked through slaughter to assure accountability of all cattle on study per food use authorization or were euthanized and necropsied. Decisions to remove an animal from treatment phase were made by the Investigator or Manager. Animals that were found dead at the time of the observation were removed from the pen as soon as practical and necropsied (if possible).
The label claim variable of cumulative NH3 gas emissions over the treatment period normalized by final BW (with d −59 BW as a covariate) for the period and HCW (g of gas kg^−1 of BW or g of gas kg^−1 HCW) was determined by utilizing NH3 gas emissions equations developed from the LUB clinical effectiveness study (FDA-FOI, 2018) and validated using animals of similar BW as described by Brown et al. (2019). The pen was the experimental unit for each outcome. Differences were deemed significant using a two-sided test at Ptrt≤0.05, however, a less stringent significance threshold of Ptrt≤0.10 was used for abnormal health observations. Fixed effect of treatment and random effects of time replicate and block within time replicate were included in the model. Discrete variables were analyzed using a generalized linear mixed model, Proc GLIMMIX SAS version 9.4 unless there were convergence problems due to sparseness of data. A binomial distribution was assumed and a logit link used in the analysis. Contrasts were constructed between the CON group and each non-CON dosage group, and differences were deemed significant at Pdose≤0.05. […]

[1] = Lubabegron 1.5 mg·kg^−1 DM, 56 d, 720 hd per treatment
[2] = Lubabegron 3.5 mg·kg^−1 DM, 56 d, 720 hd per treatment
[3] = Lubabegron 5.5 mg·kg^−1 DM, 56 d, 720 hd per treatment

For `CC(C)(Cc1ccc(Oc2ncccc2C#N)cc1)NC[C@H](O)COc1ccccc1-c1cccs1` [LUB, 2-{4-[2-({(2S)-2-Hydroxy-3-[2-(2-thienyl)phenoxy]propyl}amino)-2-methylpropyl]phenoxy}nicotinonitrile], the “Abnormal health observations and animal removals, between-treatment differences” value (CON, 1.5, 3.5, 5.5 mg·kg^−1, 56 d, Ptrt>0.10) was “No significant (Ptrt>0.10) between-treatment differences”, the “Bloat (gastrointestinal), rate” value [1] was 0.1% and the “Bloat (gastrointestinal), total number” value [1] was 1. For the same molecule, the “Dead (animals found dead), rate” value [1] was 0.3%, the “Dead (animals found dead), total number” value [1] was 2 and the “Lameness (musculoskeletal), rate” value [1] was 1.3%. For the same molecule, the “Lameness (musculoskeletal), total number” value [1] was 9, the “Removals (found dead and removed during treatment phase), rate” value (“Removals … rate” below) [1] was 2.5% and the “Removals (found dead and removed during treatment phase), total number” value (“Removals … total number” for short) [1] was 18. The “Bloat (gastrointestinal), rate” value [2] was 0.6%, the “Bloat (gastrointestinal), total number” value [2] was 4 and the “Dead (animals found dead), rate” value [2] was 0.7%. For the same molecule, the “Dead (animals found dead), total number” value [2] was 5, the “Lameness (musculoskeletal), rate” value [2] was 0.4% and the “Lameness (musculoskeletal), total number” value [2] was 3. For the same molecule, the “Removals … rate” value [2] was 1.5%, the “Removals … total number” value [2] was 11 and the “Bloat (gastrointestinal), rate” value [3] was 0.3%. For the same molecule, the “Bloat (gastrointestinal), total number” value [3] was 2, the “Lameness (musculoskeletal), rate” value [3] was 1.0% and the “Lameness (musculoskeletal), total number” value [3] was 7. The “Pneumonia (respiratory), rate” value [3] was 0.3%, the “Pneumonia (respiratory), total number” value [3] was 2 and the “Removals … rate” value [3] was 1.8%. The “Removals … total number” value [3] was 13.
